In patent US20110158953A1, “TUMOR SUPPRESSION THROUGH PLEXIN C1” (UNIVERSITY OF ROCHESTER, priority 2008, published 2011):
“Also recorded” adds a separate entry of the source.

Columns and labels:
Plexin C1 = Plexin C1 protein expression in human melanoma cell lines treated with DNA methylation inhibitor (Western blot); type: cell-based; conditions: 5 days; for Change in Plexin C1 protein: 3 μM
Procedure: Results are representative of 2 separate experiments.
Promotor hypermethylation plays a major role in transcriptional silencing of tumor suppressor genes in cancer and in melanoma (Dahl and Guldberg, 2007; Gronbaek et al., 2007; Rothhammer and Bosserhoff, 2007). To determine if Plexin C1 expression is regulated by DNA hypermethylation, melanoma cells were treated for 5 days with the DNA methylation inhibitor 5-Aza-2′-Deoxycytidine (5-Aza2Dc; 3 μM). Total cell lysates were then blotted for Plexin C1. […] But, a dose of 1.0 μM was the lowest dose that stimulated Plexin C1 expression in the YURIF and WW165 cell lines (FIG. 1C).
Neonatal foreskins were obtained according to the University of Rochester Research Subjects Review Board guidelines and were the source of cultured human melanocytes. Human melanocytes were cultured in MCDB 153 supplemented with 0.5% fetal bovine serum (FBS), bovine pituitary extract (15 μg/ml), phorbol ester (10 nM), basic fibroblast growth factor (1 ng/ml), insulin (5 μg/ml) and hydrocortisone (500 ng/ml). All supplements were purchased from Sigma Co, except FBS, which was purchased from Mediatech (Manassas, Va.). The following human melanoma cell lines were purchased from the Yale University Cell Core Facility: WW165, YURIF, YUSIK, YUMAC, and were maintained in Opti-MEM+5% FBS, except WW165 which was maintained in Opti-MEM+5% FBS and IBMX 0.1 mM. The C32 and WM115 human melanoma cell lines were obtained from American Type Culture Collection (Manassas Va.) and were maintained in Eagle Minimal Essential Media (MEM)+10% FBS and 1 mM sodium pyruvate. The WM115 and WW 165 cell lines were derived from melanomas primary to the skin; the other cell lines were derived from metastatic melanoma.
For Western blotting, cells were lysed in RIPA buffer (150 mM NaCl, 1% NP-40, 0.5% DOC, 0.1% SDS, 50 mM Tris-HCl) with protease inhibitors (Boehringer Mannheim, Gmbt, Germany) and phosphatase inhibitors (Gbiosciences, St. Louis, Mo.) and protein was quantified using bovine serum albumen (BSA) as standard (Bio-Rad Laboratories, Hercules, Calif.). Visualization of the immunoreactive proteins was accomplished with an enhanced chemiluminescence reaction (Pierce Chemical, Rockford, Ill.). For analysis of cell surface Sema7A expression in melanoma cell lines by flow cytometry, cells were placed in suspension in PBS/1% BSA and stained with FITC-conjugated antibodies against Sema7A for 30 minutes at room temperature. Negative controls consisted of cells incubated with FITC-conjugated IgM. After washing in PBS, cells were re-suspended in 0.5% formalin in PBS/1% BSA and analyzed using a FACS Caliber Machine (Becton Dickenson) at the flow cytometry core facility at the University of Rochester.

Erk1/Erk2 = assay: Sema7A-stimulated MAP kinase activation (P-Erk1/Erk2) in human melanocytes (Western blot); type: cell-based; conditions: PD 98059 10 μM one hour prior to Sema7A 25 ng/ml for 5 minutes
Procedure: Total cell lysates were resolved on 10% SDS-PAGE and blotted for phosphorylated Erk1/Erk2; the blot was stripped and re-blotted for total Erk1/Erk2. […] Results are representative of 2 separate experiments. The specificity of MAP kinase activation was tested in melanocytes by the inclusion of the selective p42/44 MAP kinase inhibitor PD 98059 (10 μM) in cells treated with Sema7A (25 ng/ml) for 5 minutes (FIG. 4D). Shown are cell lyates resolved on SDS-PAGE and blotted for P-Erk1/Erk2. The blot was stripped and reblotted for total Erk1/Erk2. As expected, Sema7A stimulated phosphorylation of Erk1/Erk2 within 5 minutes of treatment. […] Results are representative of 2 separate experiments. […]
For Western blotting, cells were lysed in RIPA buffer (150 mM NaCl, 1% NP-40, 0.5% DOC, 0.1% SDS, 50 mM Tris-HCl) with protease inhibitors (Boehringer Mannheim, Gmbt, Germany) and phosphatase inhibitors (Gbiosciences, St. Louis, Mo.) and protein was quantified using bovine serum albumen (BSA) as standard (Bio-Rad Laboratories, Hercules, Calif.). […] After washing in PBS, cells were re-suspended in 0.5% formalin in PBS/1% BSA and analyzed using a FACS Caliber Machine (Becton Dickenson) at the flow cytometry core facility at the University of Rochester.

| Structure (SMILES) | Change in Plexin C1 protein (Plexin C1; C32 melanoma cells) | Change in Plexin C1 protein (Plexin C1; WM115 melanoma cells) | Lowest dose that stimulated Plexin C1 expression (Plexin C1; WW165 cells, dose response 0.1 μM to 3.0 μM) | Change in Plexin C1 protein (Plexin C1; WW165 melanoma cells) | Change in Plexin C1 protein (Plexin C1; WW165 melanoma cells, listed as 5-AzaDc) | Dose sufficient to increase Plexin C1 expression (Plexin C1; YUMAC cells, dose response 0.1 μM to 3.0 μM) | Change in Plexin C1 protein (Plexin C1; YUMAC melanoma cells) | Lowest dose that stimulated Plexin C1 expression (Plexin C1; YURIF cells, dose response 0.1 μM to 3.0 μM) | Change in Plexin C1 protein (Plexin C1; YURIF melanoma cells) | Change in Plexin C1 protein (Plexin C1; YURIF melanoma cells, listed as 5-AzaDc) | Change in Plexin C1 protein (Plexin C1; YUSIK melanoma cells) | Effect on Sema7A-induced Erk1/Erk2 phosphorylation (Erk1/Erk2) |
| --- | --- | --- | --- | --- | --- | --- | --- | --- | --- | --- | --- | --- |
| Nc1ncn([C@H]2C[C@H](O)[C@@H](CO)O2)c(=O)n1 [5-Aza2Dc, 5-Aza-2′-Deoxycytidine] | no change | no change | 1.0 µM | reduction | decrease | 0.1 µM | increase | 1.0 µM | reduction | decrease | no change | – |
| COc1cccc(-c2cc(=O)c3ccccc3o2)c1N [PD 98059] | – | – | – | – | – | – | – | – | – | – | – | no induction; also recorded: inhibited |
